The kinase profiling compilation of Christmann-Franck et al. (2016)

How the values were obtained:
Test in all cases: KINOMEscan competition binding
Settings in all cases: compound 10.0 µM
AKT2 (human) = AKT2 (human) (UniProt P31751)
AURKB (human) = AURKB (human) (UniProt Q96GD4)
BRSK2 (human) = BRSK2 (human) (UniProt Q8IWQ3)
CAMK4 (human) = CAMK4 (human) (UniProt Q16566)
CDC2L2 (human) = CDC2L2 (human) (UniProt Q9UQ88)
CDK11B (human) = CDK11B (human) (UniProt P21127)
CDK18 (human) = CDK18 (human) (UniProt Q07002)
CDK5 (human) = CDK5 (human) (UniProt Q00535)
CDKL2 (human) = CDKL2 (human) (UniProt Q92772)
CSNK1G1 (human) = CSNK1G1 (human) (UniProt Q9HCP0)
DAPK1 (human) = DAPK1 (human) (UniProt P53355)
DAPK3 (human) = DAPK3 (human) (UniProt O43293)
DMPK (human) = DMPK (human) (UniProt Q09013)
EPHB2 (human) = EPHB2 (human) (UniProt P29323)
KIT (human) = KIT (human) (UniProt P10721)
LCK (human) = LCK (human) (UniProt P06239)
MAPK12 (human) = MAPK12 (human) (UniProt P53778)
MKNK1 (human) = MKNK1 (human) (UniProt Q9BUB5)
NEK9 (human) = NEK9 (human) (UniProt Q8TD19)
NTRK3 (human) = NTRK3 (human) (UniProt Q16288)
PAK2 (human) = PAK2 (human) (UniProt Q13177)
PDPK1 (human) = PDPK1 (human) (UniProt O15530)
PIK3CB (human) = PIK3CB (human) (UniProt P42338)
PIK3CG (human) = PIK3CG (human) (UniProt P48736)
PRKAA2 (human) = PRKAA2 (human) (UniProt P54646)
PRKD3 (human) = PRKD3 (human) (UniProt O94806)
[1] = test system: RET (human), P07949 [V804L]
RIPK4 (human) = RIPK4 (human) (UniProt P57078)
RPS6KA3 KD1 (human) = RPS6KA3 KD1 (human) (UniProt P51812)
RPS6KA5 KD1 (human) = RPS6KA5 KD1 (human) (UniProt O75582)
RPS6KA6 KD1 (human) = RPS6KA6 KD1 (human) (UniProt Q9UK32)
SGK110 (human) = SGK110 (human) (UniProt P0C264)
TEK (human) = TEK (human) (UniProt Q02763)
TGFBR1 (human) = TGFBR1 (human) (UniProt P36897)
TGFBR1 (human), sequence (P36897 whole entry, looked up): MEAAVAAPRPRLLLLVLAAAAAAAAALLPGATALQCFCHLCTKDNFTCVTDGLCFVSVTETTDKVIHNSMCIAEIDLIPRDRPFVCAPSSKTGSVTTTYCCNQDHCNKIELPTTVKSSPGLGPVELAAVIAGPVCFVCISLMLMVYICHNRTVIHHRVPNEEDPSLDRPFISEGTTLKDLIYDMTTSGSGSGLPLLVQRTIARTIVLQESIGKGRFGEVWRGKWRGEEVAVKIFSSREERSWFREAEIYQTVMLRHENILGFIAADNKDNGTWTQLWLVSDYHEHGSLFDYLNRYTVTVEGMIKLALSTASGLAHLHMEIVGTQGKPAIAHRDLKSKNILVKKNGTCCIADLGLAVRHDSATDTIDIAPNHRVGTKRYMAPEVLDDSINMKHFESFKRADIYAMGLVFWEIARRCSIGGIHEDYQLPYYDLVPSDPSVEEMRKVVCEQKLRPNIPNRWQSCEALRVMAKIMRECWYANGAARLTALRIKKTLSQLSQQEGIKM

BRSK2 (human), sequence (Q8IWQ3 whole entry, looked up): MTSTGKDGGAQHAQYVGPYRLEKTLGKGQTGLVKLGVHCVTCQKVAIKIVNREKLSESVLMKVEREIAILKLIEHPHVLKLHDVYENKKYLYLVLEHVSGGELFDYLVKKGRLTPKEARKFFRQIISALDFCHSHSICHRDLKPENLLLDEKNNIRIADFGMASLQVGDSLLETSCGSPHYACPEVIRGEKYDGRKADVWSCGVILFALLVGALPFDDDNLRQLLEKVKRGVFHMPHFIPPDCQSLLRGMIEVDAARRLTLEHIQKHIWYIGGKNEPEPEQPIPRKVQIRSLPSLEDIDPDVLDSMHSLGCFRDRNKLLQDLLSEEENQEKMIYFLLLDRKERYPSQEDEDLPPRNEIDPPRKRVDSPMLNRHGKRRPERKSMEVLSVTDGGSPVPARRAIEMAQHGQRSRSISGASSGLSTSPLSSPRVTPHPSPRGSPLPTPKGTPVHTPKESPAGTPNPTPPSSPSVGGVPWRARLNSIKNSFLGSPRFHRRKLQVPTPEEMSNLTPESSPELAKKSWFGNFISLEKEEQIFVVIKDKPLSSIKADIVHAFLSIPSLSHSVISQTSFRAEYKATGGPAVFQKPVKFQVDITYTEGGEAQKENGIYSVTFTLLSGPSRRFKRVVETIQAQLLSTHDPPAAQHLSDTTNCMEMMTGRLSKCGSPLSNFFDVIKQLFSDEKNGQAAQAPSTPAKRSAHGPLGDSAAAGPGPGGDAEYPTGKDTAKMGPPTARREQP
PAK2 (human), sequence (Q13177 whole entry, looked up): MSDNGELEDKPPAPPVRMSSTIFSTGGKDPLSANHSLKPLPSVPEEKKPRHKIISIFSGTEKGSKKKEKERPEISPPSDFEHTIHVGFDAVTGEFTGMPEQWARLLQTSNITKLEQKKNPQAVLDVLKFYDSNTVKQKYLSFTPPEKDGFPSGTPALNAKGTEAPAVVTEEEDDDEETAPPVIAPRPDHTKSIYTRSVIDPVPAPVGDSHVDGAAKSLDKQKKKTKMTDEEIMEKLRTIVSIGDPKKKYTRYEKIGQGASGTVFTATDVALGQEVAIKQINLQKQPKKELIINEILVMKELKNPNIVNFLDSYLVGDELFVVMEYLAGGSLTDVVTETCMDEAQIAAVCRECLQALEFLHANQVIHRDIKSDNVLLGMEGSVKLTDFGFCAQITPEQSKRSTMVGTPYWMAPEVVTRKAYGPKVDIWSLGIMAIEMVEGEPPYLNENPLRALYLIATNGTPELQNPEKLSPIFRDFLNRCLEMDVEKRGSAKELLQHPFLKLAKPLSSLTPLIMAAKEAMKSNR
RPS6KA6 KD1 (human), sequence (Q9UK32 whole entry, looked up): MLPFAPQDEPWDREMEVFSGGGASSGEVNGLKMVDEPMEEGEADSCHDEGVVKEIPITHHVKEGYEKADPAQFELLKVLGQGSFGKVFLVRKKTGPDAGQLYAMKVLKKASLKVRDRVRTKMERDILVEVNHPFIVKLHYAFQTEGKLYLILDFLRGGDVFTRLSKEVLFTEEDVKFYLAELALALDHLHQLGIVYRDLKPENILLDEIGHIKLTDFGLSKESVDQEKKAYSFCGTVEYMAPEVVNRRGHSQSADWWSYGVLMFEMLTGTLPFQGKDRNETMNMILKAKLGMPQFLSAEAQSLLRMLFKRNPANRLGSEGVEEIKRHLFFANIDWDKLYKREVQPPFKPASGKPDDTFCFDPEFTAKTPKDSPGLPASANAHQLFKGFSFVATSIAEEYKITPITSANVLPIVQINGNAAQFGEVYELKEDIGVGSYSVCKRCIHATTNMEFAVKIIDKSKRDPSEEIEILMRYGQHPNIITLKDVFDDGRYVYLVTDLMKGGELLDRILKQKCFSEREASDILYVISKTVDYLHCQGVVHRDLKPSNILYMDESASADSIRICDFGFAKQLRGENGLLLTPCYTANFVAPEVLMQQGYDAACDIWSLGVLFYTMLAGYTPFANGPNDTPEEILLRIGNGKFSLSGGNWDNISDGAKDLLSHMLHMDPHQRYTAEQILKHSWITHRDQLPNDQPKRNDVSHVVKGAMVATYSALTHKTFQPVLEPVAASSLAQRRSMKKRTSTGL
CDC2L2 (human), sequence (Q9UQ88 whole entry, looked up): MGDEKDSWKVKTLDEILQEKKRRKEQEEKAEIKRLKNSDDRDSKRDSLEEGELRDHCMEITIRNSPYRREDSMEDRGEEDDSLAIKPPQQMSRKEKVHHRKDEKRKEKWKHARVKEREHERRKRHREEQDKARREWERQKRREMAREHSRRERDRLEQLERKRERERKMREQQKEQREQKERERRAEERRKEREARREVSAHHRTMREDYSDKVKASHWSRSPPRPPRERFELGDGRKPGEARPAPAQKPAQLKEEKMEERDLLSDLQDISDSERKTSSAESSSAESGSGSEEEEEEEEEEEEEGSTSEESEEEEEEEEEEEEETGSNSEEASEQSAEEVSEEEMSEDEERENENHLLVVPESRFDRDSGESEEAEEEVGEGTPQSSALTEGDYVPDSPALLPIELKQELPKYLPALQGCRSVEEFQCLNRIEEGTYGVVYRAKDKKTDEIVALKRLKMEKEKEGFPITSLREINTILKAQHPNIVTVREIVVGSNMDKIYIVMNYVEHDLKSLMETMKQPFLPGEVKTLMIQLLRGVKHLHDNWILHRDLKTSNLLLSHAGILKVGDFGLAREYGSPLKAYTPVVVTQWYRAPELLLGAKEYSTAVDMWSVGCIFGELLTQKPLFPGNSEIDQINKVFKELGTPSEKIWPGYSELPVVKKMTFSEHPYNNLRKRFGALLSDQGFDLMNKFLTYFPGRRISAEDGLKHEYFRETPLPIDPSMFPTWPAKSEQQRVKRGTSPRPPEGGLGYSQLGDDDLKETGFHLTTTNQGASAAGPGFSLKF
AURKB (human), sequence (Q96GD4 whole entry, looked up): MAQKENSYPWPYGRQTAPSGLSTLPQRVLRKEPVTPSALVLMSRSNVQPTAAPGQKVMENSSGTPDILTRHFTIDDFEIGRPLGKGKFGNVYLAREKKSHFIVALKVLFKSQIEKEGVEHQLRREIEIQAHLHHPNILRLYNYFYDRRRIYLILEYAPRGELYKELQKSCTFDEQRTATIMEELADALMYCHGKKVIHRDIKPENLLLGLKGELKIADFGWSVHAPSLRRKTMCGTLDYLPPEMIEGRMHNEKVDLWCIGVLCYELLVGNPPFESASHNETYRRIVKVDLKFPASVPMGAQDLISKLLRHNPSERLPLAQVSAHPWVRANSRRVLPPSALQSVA
CSNK1G1 (human), sequence (Q9HCP0 whole entry, looked up): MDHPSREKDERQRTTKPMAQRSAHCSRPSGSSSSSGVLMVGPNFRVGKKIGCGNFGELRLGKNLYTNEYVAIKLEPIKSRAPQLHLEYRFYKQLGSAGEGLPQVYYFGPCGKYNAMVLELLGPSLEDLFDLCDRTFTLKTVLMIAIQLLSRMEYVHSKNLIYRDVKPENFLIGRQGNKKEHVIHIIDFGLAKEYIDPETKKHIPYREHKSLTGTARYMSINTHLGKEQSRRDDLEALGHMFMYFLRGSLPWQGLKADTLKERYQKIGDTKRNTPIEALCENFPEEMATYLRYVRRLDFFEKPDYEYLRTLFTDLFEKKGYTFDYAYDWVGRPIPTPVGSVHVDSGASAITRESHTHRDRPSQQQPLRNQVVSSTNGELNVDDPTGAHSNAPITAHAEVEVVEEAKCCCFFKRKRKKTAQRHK
CAMK4 (human), sequence (Q16566 whole entry, looked up): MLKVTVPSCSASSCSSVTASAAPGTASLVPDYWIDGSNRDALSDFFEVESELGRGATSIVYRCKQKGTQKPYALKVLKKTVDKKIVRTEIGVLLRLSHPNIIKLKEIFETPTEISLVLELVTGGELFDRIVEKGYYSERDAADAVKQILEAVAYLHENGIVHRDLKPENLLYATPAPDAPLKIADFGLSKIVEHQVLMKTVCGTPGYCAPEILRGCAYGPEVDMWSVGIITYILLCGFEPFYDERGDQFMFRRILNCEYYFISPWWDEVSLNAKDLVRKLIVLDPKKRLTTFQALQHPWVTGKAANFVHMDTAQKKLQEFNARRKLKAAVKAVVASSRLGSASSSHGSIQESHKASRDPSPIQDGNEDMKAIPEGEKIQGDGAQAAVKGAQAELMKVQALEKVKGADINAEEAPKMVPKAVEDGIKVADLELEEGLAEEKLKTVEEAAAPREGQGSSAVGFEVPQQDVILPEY
DAPK3 (human), sequence (O43293 whole entry, looked up): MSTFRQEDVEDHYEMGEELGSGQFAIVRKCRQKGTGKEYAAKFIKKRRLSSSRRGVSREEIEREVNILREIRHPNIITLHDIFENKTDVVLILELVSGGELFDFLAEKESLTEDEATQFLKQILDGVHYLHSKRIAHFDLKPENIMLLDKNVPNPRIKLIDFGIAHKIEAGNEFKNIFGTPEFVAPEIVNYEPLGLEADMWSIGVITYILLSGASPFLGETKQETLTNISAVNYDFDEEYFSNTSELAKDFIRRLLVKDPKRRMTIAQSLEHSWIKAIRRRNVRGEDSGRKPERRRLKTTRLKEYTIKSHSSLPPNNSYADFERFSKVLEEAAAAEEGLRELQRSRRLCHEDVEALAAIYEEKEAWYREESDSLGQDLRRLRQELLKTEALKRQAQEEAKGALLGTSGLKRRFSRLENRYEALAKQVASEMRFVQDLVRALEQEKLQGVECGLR

## COc1cc(C)c(Sc2cnc(NC(=O)c3ccc(CNC(C)C(C)C)cc3)s2)cc1C(=O)N1CCN(C(C)=O)CC1 (configuration not stated)
AKT2 (human)
  kinase still bound, per cent of control: 100%
AURKB (human)
  kinase still bound, per cent of control: 100%
BRSK2 (human)
  kinase still bound, per cent of control: 100%
CAMK4 (human)
  kinase still bound, per cent of control: 100%
CDC2L2 (human)
  kinase still bound, per cent of control: 100%
CDK11B (human)
  kinase still bound, per cent of control: 100%
CDK18 (human)
  kinase still bound, per cent of control: 100%
CDK5 (human)
  kinase still bound, per cent of control: 100%
CDKL2 (human)
  kinase still bound, per cent of control: 100%
CSNK1G1 (human)
  kinase still bound, per cent of control: 100%
DAPK1 (human)
  kinase still bound, per cent of control: 100%
DAPK3 (human)
  kinase still bound, per cent of control: 100%
DMPK (human)
  kinase still bound, per cent of control: 100%
EPHB2 (human)
  kinase still bound, per cent of control: 100%
KIT (human)
  kinase still bound, per cent of control: 100%
LCK (human)
  kinase still bound, per cent of control: 6.2%
MAPK12 (human)
  kinase still bound, per cent of control: 100%
MKNK1 (human)
  kinase still bound, per cent of control: 100%
NEK9 (human)
  kinase still bound, per cent of control: 100%
NTRK3 (human)
  kinase still bound, per cent of control: 100%
PAK2 (human)
  kinase still bound, per cent of control: 100%
PDPK1 (human)
  kinase still bound, per cent of control: 100%
PIK3CB (human)
  kinase still bound, per cent of control: 100%
PIK3CG (human)
  kinase still bound, per cent of control: 100%
PRKAA2 (human)
  kinase still bound, per cent of control: 100%
PRKD3 (human)
  kinase still bound, per cent of control: 100%
[1]
  kinase still bound, per cent of control: 100%
RIPK4 (human)
  kinase still bound, per cent of control: 100%
RPS6KA3 KD1 (human)
  kinase still bound, per cent of control: 100%
RPS6KA5 KD1 (human)
  kinase still bound, per cent of control: 100%
RPS6KA6 KD1 (human)
  kinase still bound, per cent of control: 100%
SGK110 (human)
  kinase still bound, per cent of control: 100%
TEK (human)
  kinase still bound, per cent of control: 29%
TGFBR1 (human)
  kinase still bound, per cent of control: 100%

## COc1ccc(N(C(=O)Oc2cc(C(=O)Nc3cccc(C(F)(F)F)c3)ccc2C)c2ccnc(Nc3ccc(N4CCN(C)CC4)cc3)n2)c(OC)c1
AKT2 (human)
  kinase still bound, per cent of control: 100%
AURKB (human)
  kinase still bound, per cent of control: 100%
BRSK2 (human)
  kinase still bound, per cent of control: 100%
CAMK4 (human)
  kinase still bound, per cent of control: 100%
CDC2L2 (human)
  kinase still bound, per cent of control: 8%
CDK11B (human)
  kinase still bound, per cent of control: 8.3%
CDK18 (human)
  kinase still bound, per cent of control: 100%
CDK5 (human)
  kinase still bound, per cent of control: 100%
CSNK1G1 (human)
  kinase still bound, per cent of control: 100%
DAPK1 (human)
  kinase still bound, per cent of control: 100%
DAPK3 (human)
  kinase still bound, per cent of control: 100%
DMPK (human)
  kinase still bound, per cent of control: 100%
EPHB2 (human)
  kinase still bound, per cent of control: 0.9%
KIT (human)
  kinase still bound, per cent of control: 0.8%
LCK (human)
  kinase still bound, per cent of control: 0.4%
MAPK12 (human)
  kinase still bound, per cent of control: 100%
MKNK1 (human)
  kinase still bound, per cent of control: 100%
NEK9 (human)
  kinase still bound, per cent of control: 100%
NTRK3 (human)
  kinase still bound, per cent of control: 13%
PAK2 (human)
  kinase still bound, per cent of control: 100%
PDPK1 (human)
  kinase still bound, per cent of control: 100%
PRKAA2 (human)
  kinase still bound, per cent of control: 3.3%
PRKD3 (human)
  kinase still bound, per cent of control: 100%
RPS6KA3 KD1 (human)
  kinase still bound, per cent of control: 100%
RPS6KA5 KD1 (human)
  kinase still bound, per cent of control: 100%
RPS6KA6 KD1 (human)
  kinase still bound, per cent of control: 100%
TEK (human)
  kinase still bound, per cent of control: 0.05%
TGFBR1 (human)
  kinase still bound, per cent of control: 100%
